Where a name gives a salt, the structure may show the parent alone.
Legend:
Sigma-2 = Sigma-2 Ki determination (NIMH-PDSP); format: binding; settings: standard drug haloperidol
Experimental: (§1) The compounds from the above Examples were tested for Sigma-1 and Sigma-2 activity. Ki determinations were generously provided by the National Institute of Mental Health's Psychoactive Drug Screening Program (PDSP), Contract #HHSN-272-2013-000017-C(NIMH-PDSP). The NIMH-PDSP is directed by Bryan L Roth MD, PhD at the University of North Carolina at Chapel Hill, N.C. and Project Officer Jamie Driscoll at NIMH, Bethesda, Md., USA. Procedures employed by the PDSP as described in the NIMH-PDSP Assay Protocol Book, Version II. The standard drug used in both Sigma subtype assays is haloperidol.

Sigma-1 = Sigma-1 Ki determination (NIMH-PDSP); format: binding; settings: standard drug haloperidol
Experimental: as §1

Row | SMILES | Ki (Sigma-2) [nM] | Ki (Sigma-1) [nM]
1 | CN[C@]1(c2ccccc2Cl)CCCC[C@@H]1NCCCN1CCN(C)CC1 (relative stereo) [Example 13a, Cis-(1S,2S)-1-(2-chlorophenyl)-N^1-methyl-N^2-(3-(4-methylpiperazin-1-yl)propyl)cyclohexane-1,2-diamine tetrahydrochloride] | 98 | 70
2 | CN[C@]1(c2ccccc2Cl)CCCC[C@@H]1NCCCc1ccc(F)cc1 (relative stereo) [Example 3a, Cis-(1S,2S)-1-(2-chlorophenyl)-N^2-[3-(4-fluorophenyl)propyl]-N^1-methyl-cyclohexane-1,2-diamine dihydrochloride] | 18 | 35.4
3 | CN[C@]1(c2ccccc2Cl)CCCC[C@H]1NCCCc1ccccc1 (relative stereo) [Example 4b, Trans-(1S,2R)-1-(2-chlorophenyl)-N^1-methyl-N^2-(3-phenylpropyl)cyclohexane-1,2-diamine dihydrochloride] | 426 | 697
4 | CN[C@]1(c2ccccc2Cl)CCCC[C@@H]1NCCCc1ccccc1 (relative stereo) [Example 4a, Cis-(1S,2S)-1-(2-chlorophenyl)-N^1-methyl-N^2-(3-phenylpropyl)cyclohexane-1,2-diamine dihydrochloride] | 15.5 | 97.2
5 | CN[C@]1(c2ccccc2Cl)CCCC[C@H]1NCCCN1CCN(C)CC1 (relative stereo) [Example 13b, Trans-(1S,2R)-1-(2-chlorophenyl)-N^1-methyl-N^2-(3-(4-methylpiperazin-1-yl)propyl)cyclohexane-1,2-diamine tetrahydrochloride] | 435 | 146
6 | CN[C@]1(c2ccccc2Cl)CCCC[C@H]1NCCCc1ccc(F)cc1 (relative stereo) [Example 3b, Trans-(1S,2R)-1-(2-chlorophenyl)-N^2-[3-(4-fluorophenyl)propyl]-N^1-methyl-cyclohexane-1,2-diamine dihydrochloride] | 675 | 217
7 | CN[C@]1(c2ccccc2Cl)CCCC[C@@H]1NCCCN1CCCC1 (relative stereo) [Example 2a, Cis-(1S,2S)-1-(2-chlorophenyl)-N^1-methyl-N^2-[3-(pyrrolidin-1-yl)propyl]-cyclohexane-1,2-diamine trihydrochloride] | 59.8 | 17.3
8 | CN[C@]1(c2ccccc2Cl)CCCC[C@H]1NCCCN1CCCC1 (relative stereo) [Example 2b, Trans-(1S,2R)-1-(2-chlorophenyl)-N^1-methyl-N^2-[3-(pyrrolidin-1-yl)propyl]-cyclohexane-1,2-diamine trihydrochloride] | 305 | 37.2

— patent US11007200B2, “Cycloalkyl-diamines for the treatment of pain” (MediSynergics, LLC, priority 2019, dated 2021)
